Where a name gives a salt, the structure may show the parent alone. Read-outs that look alike come from different tables or passages of the source.

The assay has as its system tactile allodynia in the rat Chung model. The assay is described as follows: Chung model: reversal of tactile allodynia (von Frey hairs) after spinal nerve ligation. The following applies: for inhibition in vivo at 0.3 mg/kg / inhibition in vivo at 0.03 mg/kg: Rattus norvegicus, read-out: Peak % Pain reversal: time post dose. The class given is in vivo. From the text: An art-accepted model or assay for measuring an analgesic effect of a compound in chronic pain (in particular peripheral neuropathy) is the model known as Kim and Chung 1992, Pain […], pp 355-363 (Chung model). This model involves the surgical ligation of the L5 (and optionally the L6) spinal nerves on one side in experimental animals. Rats recovering from the surgery gain weight and display a level of general activity similar to that of normal rats. However, these rats develop abnormalities of the foot, wherein the hindpaw is moderately everted and the toes are held together. More importantly, the hindpaw on the side affected by the surgery appears to become sensitive to low-threshold mechanical stimuli and will perceive pain instead of the faint sensation of touch. This sensitivity to normally non-painful touch, called “tactile allodynia”, develops within the first week after surgery and lasts for at least two months. The allodynia response includes lifting the affected hindpaw to escape from the stimulus, licking the paw and holding it in the air for many seconds. None of these responses is normally seen in the control group.
To produce the tactile allodynia, rats are anesthetized before surgery. The surgical site is shaved and prepared either with betadine or Novacaine. Incision is made from the thoracic vertebra X111 down toward the sacrum. Muscle tissue is separated from the spinal vertebra (left side) at the L4-S2 levels. The L6 vertebra is located and the transverse process is carefully removed with a small rongeur to expose the L4-L6 spinal nerves. The L5 and L6 spinal nerves are isolated and tightly ligated with 6-0 silk thread. The same procedure is done on the right side as a control, except no ligation of the spinal nerves is performed.
After a complete hemostasis is confirmed, the wounds are sutured. A small amount of antibiotic ointment is applied to the incised area, and the rat is transferred to the recovery plastic cage under a regulated heat-temperature lamp.
On the day of the experiment, at least seven days after the surgery, typically six rats per test group are administered the test drugs by intraperitoneal (i.p.) injection or oral gavage (p.o.). For i.p. administration, the compounds are formulated in H2O and given in a volume of 1 ml/kg body weight by injecting into the intraperitoneal cavity. For p.o. administration, the compounds are formulated in H2O and given in a volume of 1 ml/kg body weight using an 18-gauge, 3 inch gavage needle that is slowly inserted through the esophagus into the stomach.
Tactile allodynia is assessed via von Frey hairs, which are a series of fine hairs with incremental differences in stiffness. Rats are placed in a plastic cage with a wire mesh bottom and allowed to acclimate for approximately 30 minutes. To establish the pre-drug baseline, the von Frey hairs are applied perpendicularly through the mesh to the mid-plantar region of the rats' hindpaw with sufficient force to cause slight buckling and held for 6-8 seconds. The applied force has been calculated to range from 0.41 to 15.1 grams. If the paw is sharply withdrawn, it is considered a positive response. A normal animal will not respond to stimuli in this range, but a surgically ligated paw will be withdrawn in response to a 1-2 gram hair. The 50% paw withdrawal threshold is determined using the method of Dixon, W. J., Ann. Rev. Pharmacol. Toxicol. 20:441-462 (1980) hereby incorporated by reference. Tactile allodynia is measured prior to and 15, 30, and 60 minutes after drug administration. The post-drug threshold is compared to the pre-drug threshold and the percent reversal of tactile sensitivity is calculated based on a normal threshold of 15.1 grams.
Table 1 below indicates the degree of pain reversal obtained in the Chung model with exemplary compounds of the invention. […]

[1] abbreviates: ip, 1 h, 300 μg/kg IP, peak at 60 min post dose.
Setting [2] is: ip, 0.5 h, 300 μg/kg IP, peak at 30 min post dose.
Where [3] appears, read: ip, 1 h, 30 μg/kg IP, peak at 60 min post dose.
Setting [4] is: 300 μg/kg IP, peak at 60 min post dose.

Consider `O=C([C@H](N[C@@H](CO)c1ccccc1)[C@@H](O)c1ccncc1)N1CCCC1` [Compound 234, (2R,3S)-2-((R)-2-Hydroxy-1-phenylethylamino)-3-hydroxy-3-(pyridin-4-yl)-1-(pyrrolidin-1-yl)propan-1-one dihydrochloride], for which the inhibition in vivo at 0.3 mg/kg under setting [1] worked out at 59%.
Consider `N[C@@H](C(=O)N1CCCC1)[C@@H](O)c1ccsc1` (racemic) [Compound 23, DL-threo-2-Amino-3-hydroxy-1-(pyrrolidin-1-yl)-3-(thiophen-3-yl)propan-1-one hydrochloride], for which the inhibition in vivo at 0.03 mg/kg (po, 1 h, 30 μg/kg PO, peak at 60 min post dose) turned out to be 100%.
Turning to `CCCCCCCCCC(=O)N[C@@H](C(=O)N1CCCC1)[C@@H](O)c1ccncc1` (racemic) [Compound 59, N-(DL-threo-3-hydroxy-1-oxo-3-(pyridin-4-yl)-1-(pyrrolidin-1-yl)propan-2-yl)decanamide hydrochloride], the inhibition in vivo at 0.3 mg/kg under setting [1] was found to be 92%.
Consider `CCCCCCCN[C@@H](C(=O)N1CCCC1)[C@@H](O)c1ccncc1` (racemic) [Compound 64, DL-threo-3-Hydroxy-2-(heptylamino)-3-(pyridin-4-yl)-1-(pyrrolidin-1-yl)propan-1-one dihydrochloride], for which the inhibition in vivo at 0.3 mg/kg under setting [2] turned out to be 100%.
`O=C(N[C@@H](C(=O)N1CCCC1)[C@@H](O)c1ccncc1)c1ccc(Cl)c(Cl)c1` (racemic) [Compound 57, 3,4-Dichloro-N-(DL-threo-1-Hydroxy-3-oxo-1-(pyridin-4-yl)-3-(pyrrolidin-1-yl)propan-2-yl)benzamide]: the inhibition in vivo at 0.3 mg/kg under setting [2] was determined as 51%.
Take `N[C@@H](C(=O)N1CCCC1)[C@@H](O)c1ccncc1` [Compound 203, (−)-(2R,3S)-2-Amino-3-hydroxy-3-(pyridin-4-yl)-1-(pyrrolidin-1-yl)propan-1-one dihydrochloride]: under setting [1], the inhibition in vivo at 0.3 mg/kg amounted to 87%.
Take `N[C@@H](C(=O)N1CCOCC1)[C@@H](O)c1ccsc1` (racemic) [Compound 230, (±)-threo-2-Amino-3-hydroxy-1-morpholino-3-(thiophen-3-yl)propan-1-one hydrochloride]: the inhibition in vivo at 0.3 mg/kg under setting [2] is 52%.
`N[C@@H](C(=O)N1CCCC1)[C@@H](O)c1ccc(I)cc1` (racemic) [Compound 210, (±)-threo-2-Amino-3-hydroxy-3-hydroxy-3-(4-iodophenyl)-1-(pyrrolidin-1-yl)propan-1-one dihydrochloride]: the inhibition in vivo at 0.3 mg/kg under setting [1] amounted to 78%.
Same read-out and setting: then `O=CN[C@@H](C(=O)N1CCCC1)[C@@H](O)c1ccncc1` (racemic) [Compound 216, N-((±)-threo-1-hydroxy-3-oxo-1-(pyridin-4-yl)-3-(pyrrolidin-1-yl)propan-2-yl)formamide hydrochloride], with 100%.
On the same count and under the same terms, next, `N[C@H](Cc1ccncc1)C(=O)N1CCCC1` [Compound 236, (R)-2-amino-3-(pyridin-4-yl)-1-(pyrrolidin-1-yl)propan-1-one dihydrochloride]: 32%.
For `N[C@@H](C(=O)N1CCCC1)[C@@H](O)c1ccoc1` (racemic) [Compound 27, DL-threo-2-Amino-3-(furan-3-yl)-3-hydroxy-1-(pyrrolidin-1-yl)propan-1-one hydrochloride], under setting [2], the inhibition in vivo at 0.3 mg/kg is 42%.
With `N[C@@H](C(=O)N1CCCC1)[C@@H](O)c1ccc2ccccc2n1` (racemic) [Compound 30, DL-threo-2-Amino-3-hydroxy-1-(pyrrolidin-1-yl)-3-(quinolin-2-yl)propan-1-one dihydrochloride], the inhibition in vivo at 0.3 mg/kg under setting [1] is 53%.
As for `NC(C(=O)N1CC[C@H](F)C1)C(O)c1ccncc1` (stereo partly drawn) [Compound 214, (2S,3R)- & (2R,3S)-2-Amino-1-((S)-3-fluoropyrrolidin-1-yl)-3-hydroxy-3-(pyridin-4-yl)propan-1-one dihydrochlorides], the inhibition in vivo at 0.03 mg/kg under setting [3] came to 86%.
Regarding `Cl.Cl.N[C@H](C(=O)N1CC[C@@H](O)C1)[C@H](O)c1ccncc1` [Compound 247, (2S,3R)- & (2R,3S)-2-Amino-1-((R)-3-hydroxypyrrolidin-1-yl)-3-hydroxy-3-(pyridin-4-yl)propan-1-one dihydrochlorides], under setting [4], the “Peak % Pain reversal: time post dose” value amounted to 42% 60 min.
In the case of `N[C@@H](C(=O)N1CCCC1)[C@H](O)c1ccncc1` [Compound 220, (−)-(2R,3R)-2-amino-3-hydroxy-3-(pyridin-4-yl)-1-(pyrrolidin-1-yl)propan-1-one dihydrochloride], under setting [2], the inhibition in vivo at 0.3 mg/kg amounted to 32%.
As for `N[C@@H](C(=O)N1CCCCC1)[C@@H](O)c1ccncc1` (racemic) [Compound 35, DL-threo-2-Amino-3-hydroxy-3-(pyridin-4-yl)-1-(piperidin-1-yl)propan-1-one dihydrochloride], the inhibition in vivo at 0.3 mg/kg under setting [1] was 92%.
As for `NCCCCCC(=O)N[C@@H](C(=O)N1CCCC1)[C@@H](O)c1ccncc1` (racemic) [Compound 238, 6-amino-N-((±)-threo-1-hydroxy-3-oxo-1-(pyridin-4-yl)-3-(pyrrolidin-1-yl)propan-2-yl)hexanamide], the inhibition in vivo at 0.3 mg/kg under setting [1] is 61%.
As for `O=C([C@H](NC1CCCCC1)[C@@H](O)c1ccncc1)N1CCCC1` (racemic) [Compound 69], under setting [2], the inhibition in vivo at 0.3 mg/kg turned out to be 63%.
`CCN(CC)C(=O)[C@H](N)[C@@H](O)c1ccncc1` (racemic) [Compound 40, DL-threo-2-Amino-N,N-diethyl-3-hydroxy-3-(pyridin-4-yl)propanamide dihydrochloride]: the inhibition in vivo at 0.3 mg/kg under setting [1] was found to be 47%.
With `O=C([C@H](NCc1ccc(Cl)c(Cl)c1)[C@@H](O)c1ccncc1)N1CCCC1` (racemic) [Compound 68, DL-threo-2-(3,4-Dichlorobenzylamino)-3-hydroxy-3-(pyridin-4-yl)-1-(pyrrolidin-1-yl)propan-1-one dihydrochloride], the inhibition in vivo at 0.3 mg/kg (po, 1 h, 300 μg/kg PO, peak at 60 min post dose) amounted to 94%.
As to `CC(C)(C)OC(=O)N[C@@H](C(=O)N1CCCC1)[C@@H](O)c1ccncc1` (racemic) [Compound 218, tert-butyl(±)-threo-1-hydroxy-3-oxo-1-(pyridin-4-yl)-3-(pyrrolidin-1-yl)propan-2-ylcarbamate hydrochloride], under setting [1], the inhibition in vivo at 0.3 mg/kg came out at 32%.
Same read-out and setting: next, `COc1ccc(C(=O)N[C@@H](C(=O)N2CCCC2)[C@@H](O)c2ccncc2)cc1` (racemic) [Compound 56, N-(DL-threo-1-Hydroxy-3-oxo-1-(pyridin-4-yl)-3-(pyrrolidin-1-yl)propan-2-yl)-4-methoxy-benzamide hydrochloride]: 67%.
For the compound `NC(C(=O)N1CC[C@H](F)C1)C(O)c1ccncc1` (single isomer, unassigned; (-)) [Compound 248, dihydrochloride], under setting [3], the inhibition in vivo at 0.03 mg/kg amounted to 59%.
For the compound `Cl.Cl.N[C@H](C(=O)N1CC[C@H](F)C1)[C@H](O)c1ccsc1` [Compound 256, (2S,3R)- & (2R,3S)-2-Amino-1-((S)-3-fluoropyrrolidin-1-yl)-3-hydroxy-3-(thiophen-3-yl)propan-1-one dihydrochlorides], the “Peak % Pain reversal: time post dose” value under setting [4] is 62% 60 min.
For the compound `N[C@@H](C(=O)N1CCCC1)[C@@H](O)c1csc2ccccc12` (racemic) [Compound 26, hydrochloride], the inhibition in vivo at 0.3 mg/kg under setting [1] was found to be 92%.
The same measure, in the same setting: then `N[C@H](C(=O)N1CCCC1)[C@@H](O)c1ccncc1` [Compound 221, (+)-(2S,3S)-2-amino-3-hydroxy-3-(pyridin-4-yl)-1-(pyrrolidin-1-yl)propan-1-one dihydrochloride], with 87%.
